Test results from PubChem BioAssay (NCI).
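Following 48 hours of exposure in 96-well plates, responses at five concentrations were used to interpolate endpoints linearly. At the GI50, growth is halved. Definition used: TGI = concentration required for complete inhibition of growth.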

Experiments:
Assay in all cases: NCI anticancer screen, dose series, 48 h
COLO 205 colon = test system: COLO 205 colon
OVCAR-5 ovarian = test system: OVCAR-5 ovarian
OVCAR-3 ovarian = test system: OVCAR-3 ovarian
SW-620 colon = test system: SW-620 colon
RXF 393 renal = test system: RXF 393 renal
SNB-75 CNS = test system: SNB-75 CNS
SF-539 CNS = test system: SF-539 CNS
786-0 renal = test system: 786-0 renal
NCI-H522 lung = test system: NCI-H522 lung
MALME-3M melanoma = test system: MALME-3M melanoma
SK-MEL-2 melanoma = test system: SK-MEL-2 melanoma
CAKI-1 renal = test system: CAKI-1 renal
NCI/ADR-RES ovarian = test system: NCI/ADR-RES ovarian
UACC-257 melanoma = test system: UACC-257 melanoma
SK-MEL-28 melanoma = test system: SK-MEL-28 melanoma
ACHN renal = test system: ACHN renal
KM12 colon = test system: KM12 colon
SNB-19 CNS = test system: SNB-19 CNS
A498 renal = test system: A498 renal
OVCAR-4 ovarian = test system: OVCAR-4 ovarian
T-47D breast = test system: T-47D breast
MDA-MB-231 breast = test system: MDA-MB-231 breast
TK-10 renal = test system: TK-10 renal
HCT-15 colon = test system: HCT-15 colon
HT29 colon = test system: HT29 colon
SF-268 CNS = test system: SF-268 CNS
RPMI-8226 leukemia = test system: RPMI-8226 leukemia
PC-3 prostate = test system: PC-3 prostate

`Cn1cc(C2=C(c3cn(C)c4ccc(Cl)cc34)C(=O)NC2=O)c2ccccc21` showed a GI50 (COLO 205 colon) of 1.67 µM, a TGI (COLO 205 colon) of 7.93 µM and a GI50 (OVCAR-5 ovarian) of 9.3 µM. For the same compound, the TGI (OVCAR-5 ovarian) was > 21.9 µM, the GI50 (OVCAR-3 ovarian) was 1.44 µM and the TGI (OVCAR-3 ovarian) was 6.88 µM. The GI50 (SW-620 colon) was 1.38 µM, the TGI (SW-620 colon) was > 25 µM and the GI50 (RXF 393 renal) was 3.19 µM. The TGI (RXF 393 renal) was 7.76 µM, the GI50 (SNB-75 CNS) was 0.709 µM and the TGI (SNB-75 CNS) was > 17.3 µM. The GI50 (SF-539 CNS) was 1.28 µM, the TGI (SF-539 CNS) was 4.74 µM and the GI50 (786-0 renal) was 4.03 µM. The TGI (786-0 renal) was 16.9 µM, the GI50 (NCI-H522 lung) was 1.34 µM and the TGI (NCI-H522 lung) was 10.5 µM. It also gave a GI50 (MALME-3M melanoma) of 6.33 µM, a TGI (MALME-3M melanoma) of 19 µM and a GI50 (SK-MEL-2 melanoma) of 1.68 µM. The TGI (SK-MEL-2 melanoma) was 6.65 µM, the GI50 (CAKI-1 renal) was 2.75 µM and the TGI (CAKI-1 renal) was > 23.7 µM. For the same compound, the GI50 (NCI/ADR-RES ovarian) was 3.82 µM, the TGI (NCI/ADR-RES ovarian) was > 23 µM and the GI50 (UACC-257 melanoma) was 5.09 µM. For the same compound, the TGI (UACC-257 melanoma) was 16.8 µM, the GI50 (SK-MEL-28 melanoma) was 4.26 µM and the TGI (SK-MEL-28 melanoma) was 19.6 µM. The GI50 (ACHN renal) was 3.15 µM, the TGI (ACHN renal) was > 25 µM and the GI50 (KM12 colon) was 2.38 µM. For the same compound, the TGI (KM12 colon) was 10.4 µM, the GI50 (SNB-19 CNS) was 8.33 µM and the TGI (SNB-19 CNS) was > 25 µM. It also gave a GI50 (A498 renal) of 1.75 µM, a TGI (A498 renal) of 7.09 µM and a GI50 (OVCAR-4 ovarian) of 6 µM. For the same compound, the TGI (OVCAR-4 ovarian) was > 23.5 µM, the GI50 (T-47D breast) was 3.84 µM and the TGI (T-47D breast) was 13 µM. For the same compound, the GI50 (MDA-MB-231 breast) was 6.69 µM, the TGI (MDA-MB-231 breast) was > 25 µM and the GI50 (TK-10 renal) was 5.55 µM. For the same compound, the TGI (TK-10 renal) was 23 µM, the GI50 (HCT-15 colon) was 1.35 µM and the TGI (HCT-15 colon) was > 25 µM. For the same compound, the GI50 (HT29 colon) was 1.23 µM, the TGI (HT29 colon) was 8.38 µM and the GI50 (SF-268 CNS) was 5.51 µM. The TGI (SF-268 CNS) was > 25 µM, the GI50 (RPMI-8226 leukemia) was 5.68 µM and the TGI (RPMI-8226 leukemia) was 17.2 µM. For the same compound, the GI50 (PC-3 prostate) was 3.88 µM and the TGI (PC-3 prostate) was > 23.2 µM.
